Source: patent publication US8906925B2, “Pyrido[4,3-B]indoles containing rigid moieties” (Medivation Technologies, Inc., priority 2008, dated 2014)
“And” between values parts separate entries of the source, which are not always exact repeats. Equal entries are not always repeated.

Experiments:
histamine receptor H1 = histamine receptor H1 (Homo sapiens, UniProt P35367); assay: Histamine H1 radioligand binding ([3H]Pyrilamine); conditions: for inhibition at 1 µM: read-out: Histamine Binding (1 μM) H1, percent inhibition of specific binding, 1 μM
How it was run: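 Values are percent inhibition of specific [3H]pyrilamine (1.2 nM) binding with compounds at ≤1 μM (1% DMSO vehicle); 180 min incubation at 25 °C, pH 7.4 Tris buffer, on CHO-expressed human H1 receptor; 1 μM pyrilamine defined nonspecific binding, bound ligand counted after filtration.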

[1] = target: T1, human recombinant adrenergic α2B receptor (Homo sapiens, UniProt P18089); assay: Adrenergic α2B radioligand binding ([3H]Rauwolscine); conditions: percent inhibition of specific binding; compound at 1 μM; read-out: Inhibition of ligand binding, Adrenergic α2B
T1 construct: expressed in transfected cells; host or cells: Chinese hamster ovary (CHO-K1) cells
T1 sequence (P18089 1-450): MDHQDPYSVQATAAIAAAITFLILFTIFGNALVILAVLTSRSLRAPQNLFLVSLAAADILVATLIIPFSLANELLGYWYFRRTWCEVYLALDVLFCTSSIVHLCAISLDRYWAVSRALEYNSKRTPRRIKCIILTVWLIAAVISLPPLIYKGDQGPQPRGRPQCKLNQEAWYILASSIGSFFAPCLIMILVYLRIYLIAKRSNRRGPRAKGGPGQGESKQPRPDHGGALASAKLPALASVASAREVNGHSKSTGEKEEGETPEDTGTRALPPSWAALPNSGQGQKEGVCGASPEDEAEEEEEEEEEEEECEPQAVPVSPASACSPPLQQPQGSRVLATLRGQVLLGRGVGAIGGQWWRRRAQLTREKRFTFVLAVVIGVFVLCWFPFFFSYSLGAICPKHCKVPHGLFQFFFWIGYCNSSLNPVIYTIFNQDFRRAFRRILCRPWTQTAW
Protocol: To evaluate in radioligand binding assays the activity of compounds of the invention, human recombinant adrenergic α2B receptor expressed in Chinese hamster ovary (CHO-K1) cells (Uhlen S et al. Eur J Pharmacol. 343(1):93, 1998) in a modified Tris-HCl buffer (50 mM Tris-HCl, pH 7.4, 12.5 mM MgCl2, 1 mM EDTA, 0.2% BSA) was used. Compounds of the invention were incubated with 2.5 nM [^3H]Rauwolscine for 60 min. at 25° C. Non-specific binding was estimated in the presence of 10 μM Prozosin. Receptor proteins were filtered and washed, the filters were then counted to determine [^3H]Rauwolscine specifically bound. Compounds were screened at 1 μM or lower, using 1% DMSO as vehicle. Biochemical assay results are presented as the percent inhibition of specific binding in Table 9.

[2] = target: human dopamine D2L receptor (Homo sapiens, UniProt P14416); assay: Dopamine D2L radioligand binding ([3H]Spiperone); conditions: percent inhibition of specific binding, compound at 1 μM; for inhibition at 1 µM: read-out: Inhibition of ligand binding, Dopamine D2L; for Inhibition of ligand binding, Dopamine D2L: 1 µM
From the text: Non-specific binding was estimated in the presence of […] Haloperidol. Receptor proteins were filtered and washed, the filters were then counted to determine [^3H]Spiperone specifically bound. […] Biochemical assay results are presented as the percent inhibition of specific binding in Table 9.

[3] = target: T2, human recombinant serotonin (5-Hydroxytryptamine) 5-HT2C receptor (Homo sapiens, UniProt P28335); assay: Serotonin 5-HT2C radioligand binding ([3H]Mesulergine); conditions: read-out: Inhibition of ligand binding, Serotonin 5-HT2C (percent inhibition of specific binding); for inhibition at 1 µM: compound at 1 μM; for inhibition at 0.1 µM: compound at 0.1 μM
T2 construct: expressed in transfected cells; host or cells: Chinese hamster ovary (CHO-K1) cells
T2 sequence (P28335 33-458): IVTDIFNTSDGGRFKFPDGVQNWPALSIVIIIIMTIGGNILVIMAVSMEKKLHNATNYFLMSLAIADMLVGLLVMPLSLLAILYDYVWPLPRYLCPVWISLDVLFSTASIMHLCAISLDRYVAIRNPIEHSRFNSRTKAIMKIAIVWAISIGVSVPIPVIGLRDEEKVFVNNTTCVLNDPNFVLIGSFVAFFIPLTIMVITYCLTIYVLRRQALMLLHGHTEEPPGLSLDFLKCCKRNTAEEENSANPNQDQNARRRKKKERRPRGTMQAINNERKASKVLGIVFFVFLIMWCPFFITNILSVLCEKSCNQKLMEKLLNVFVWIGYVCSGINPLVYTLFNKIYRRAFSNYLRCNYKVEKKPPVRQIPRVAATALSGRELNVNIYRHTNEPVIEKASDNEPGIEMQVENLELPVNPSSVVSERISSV
How it was run: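 Compounds tested at 1 μM or lower (1% DMSO vehicle) for displacement of 1 nM [3H]Mesulergine over 60 min at 25° C. Specific binding determined by filtration counting, with 1 μM Mianserin defining non-specific binding; values are percent inhibition.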

Sequence of histamine receptor H1 (P35367 whole entry): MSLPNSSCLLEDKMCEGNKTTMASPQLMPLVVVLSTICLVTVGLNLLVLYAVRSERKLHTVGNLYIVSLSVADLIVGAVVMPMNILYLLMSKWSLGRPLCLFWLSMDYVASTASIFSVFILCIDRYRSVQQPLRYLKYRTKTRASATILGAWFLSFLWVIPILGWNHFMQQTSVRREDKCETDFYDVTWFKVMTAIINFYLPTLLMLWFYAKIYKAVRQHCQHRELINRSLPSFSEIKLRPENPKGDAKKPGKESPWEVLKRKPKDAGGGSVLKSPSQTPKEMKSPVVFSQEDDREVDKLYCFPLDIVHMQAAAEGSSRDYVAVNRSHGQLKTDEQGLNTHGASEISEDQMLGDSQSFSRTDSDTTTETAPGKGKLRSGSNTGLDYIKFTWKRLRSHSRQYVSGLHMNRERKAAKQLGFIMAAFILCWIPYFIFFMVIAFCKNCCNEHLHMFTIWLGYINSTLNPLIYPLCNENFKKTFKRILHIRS
Sequence of human dopamine D2L receptor (P14416 whole entry): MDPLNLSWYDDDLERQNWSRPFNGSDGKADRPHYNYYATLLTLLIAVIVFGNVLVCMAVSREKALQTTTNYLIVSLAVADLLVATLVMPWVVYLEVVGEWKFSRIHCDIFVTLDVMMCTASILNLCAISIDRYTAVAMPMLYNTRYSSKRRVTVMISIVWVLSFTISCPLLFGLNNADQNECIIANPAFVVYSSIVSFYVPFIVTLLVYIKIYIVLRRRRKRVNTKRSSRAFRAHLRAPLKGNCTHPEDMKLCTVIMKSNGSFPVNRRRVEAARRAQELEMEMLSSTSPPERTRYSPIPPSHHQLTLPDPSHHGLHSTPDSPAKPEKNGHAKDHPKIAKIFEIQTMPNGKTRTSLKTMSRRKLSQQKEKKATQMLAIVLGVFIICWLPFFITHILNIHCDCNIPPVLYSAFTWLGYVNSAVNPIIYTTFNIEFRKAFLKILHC

SMILES: Cc1ccc2c(c1)c1c(n2CC(C)(O)c2ccncc2)CCN(C)C1 (stereo not drawn) [Compound 62, 1-(1,2,3,4-tetrahydro-2,8-dimethylpyrido[4,3-b]indol-5-yl)-2-(pyridin-4-yl)propan-2-ol]
- inhibition at 1 µM (histamine receptor H1): 38%
- inhibition at 1 µM [1]: 103%
- inhibition at 1 µM [2]: 7%
- inhibition at 1 µM [3]: 89%

SMILES: CN1CCc2c(c3cc(Cl)ccc3n2CC(C)(O)c2ccncc2)C1 (stereo not drawn) [Compound 63, 1-(8-chloro-1,2,3,4-tetrahydro-2-methylpyrido[4,3-b]indol-5-yl)-2-(pyridin-4-yl)propan-2-ol]
- inhibition at 1 µM (histamine receptor H1): 46%
- inhibition at 1 µM [1]: 101%
- inhibition at 1 µM [2]: 17%
- inhibition at 1 µM [3]: 95%

SMILES: CCC(O)(Cn1c2c(c3cc(Cl)ccc31)CN(C)CC2)c1ccc(F)cc1 (stereo not drawn) [Compound 78, 1-(8-chloro-1,2,3,4-tetrahydro-2-methylpyrido[4,3-b]indol-5-yl)-2-(4-fluorophenyl)butan-2-ol]
- Histamine Binding (1 μM) H1, percent inhibition of specific binding (histamine receptor H1): 69%
- inhibition at 1 µM (histamine receptor H1): 52%
- inhibition at 1 µM [1]: 87%
- Inhibition of ligand binding, Dopamine D2L [2]: 33%
- inhibition at 1 µM [2]: 27%
- inhibition at 0.1 µM [3]: 69%
- inhibition at 1 µM [3]: 103%

SMILES: CN1CCc2c(c3cc(Cl)ccc3n2CC(O)(c2ccc(F)cc2)C2CC2)C1 (stereo not drawn) [Compound 82, 2-(8-chloro-1,2,3,4-tetrahydro-2-methylpyrido[4,3-b]indol-5-yl)-1-cyclopropyl-1-(4-fluorophenyl)ethanol]
- Histamine Binding (1 μM) H1, percent inhibition of specific binding (histamine receptor H1): 35% and 64%
- inhibition at 1 µM [1]: 99%
- Inhibition of ligand binding, Dopamine D2L [2]: 45%
- inhibition at 1 µM [2]: 39%
- inhibition at 0.1 µM [3]: 94%
- inhibition at 1 µM [3]: 105%

SMILES: C/C(=C\n1c2c(c3cc(Cl)ccc31)CN(C)CC2)c1ccc(F)cc1 [Compound 83, (E)-8-chloro-5-(2-(4-fluorophenyl)prop-1-enyl)-2,3,4,5-tetrahydro-2-methyl-1H-pyrido[4,3-b]indole]
- Histamine Binding (1 μM) H1, percent inhibition of specific binding (histamine receptor H1): 60% and 79% and 84%
- inhibition at 1 µM [1]: 121%
- inhibition at 1 µM [2]: 98%
- inhibition at 0.1 µM [3]: 100%
- inhibition at 1 µM [3]: 98%

SMILES: C/C(=C\n1c2c(c3cc(C)ccc31)CN(C)CC2)c1ccc(F)cc1 [Compound 87, (E)-5-(2-(4-fluorophenyl)prop-1-enyl)-2,3,4,5-tetrahydro-2,8-dimethyl-1H-pyrido[4,3-b]indole]
- Histamine Binding (1 μM) H1, percent inhibition of specific binding (histamine receptor H1): 81%
- inhibition at 1 µM (histamine receptor H1): 65%
- inhibition at 1 µM [1]: 121%
- inhibition at 1 µM [2]: 97%
- inhibition at 0.1 µM [3]: 101%
- inhibition at 1 µM [3]: 100%

SMILES: C/C(=C\n1c2c(c3cc(Cl)ccc31)CN(C)CC2)c1ccc(C)nc1 [Compound 89, (E)-8-chloro-2,3,4,5-tetrahydro-2-methyl-5-(2-(6-methylpyridin-3-yl)prop-1-enyl)-1H-pyrido[4,3-b]indole]
- inhibition at 1 µM (histamine receptor H1): 43%
- inhibition at 1 µM [1]: 108%
- inhibition at 1 µM [2]: 68%
- inhibition at 1 µM [3]: 98%

SMILES: C/C(=C\n1c2c(c3cc(Cl)ccc31)CN(C)CC2)c1ccncc1 [Compound 90, (E)-8-chloro-2,3,4,5-tetrahydro-2-methyl-5-(2-(pyridin-4-yl)prop-1-enyl)-1H-pyrido[4,3-b]indole]
- Histamine Binding (1 μM) H1, percent inhibition of specific binding (histamine receptor H1): 59%
- inhibition at 1 µM (histamine receptor H1): 48%
- inhibition at 1 µM [1]: 104%
- Inhibition of ligand binding, Dopamine D2L [2]: 98%
- inhibition at 1 µM [2]: 93%
- inhibition at 0.1 µM [3]: 85%
- inhibition at 1 µM [3]: 97%

SMILES: COc1ccc(/C(C)=C/n2c3c(c4cc(Cl)ccc42)CN(C)CC3)cc1 [Compound 92, (E)-8-chloro-2,3,4,5-tetrahydro-5-(2-(4-methoxyphenyl)prop-1-enyl)-2-methyl-1H-pyrido[4,3-b]indole]
- inhibition at 1 µM (histamine receptor H1): 44%
- inhibition at 1 µM [1]: 103%
- Inhibition of ligand binding, Dopamine D2L [2]: 97%
- inhibition at 1 µM [2]: 83%
- inhibition at 1 µM [3]: 91%

SMILES: COc1ccc(/C(C)=C/n2c3c(c4cc(Cl)ccc42)CN(C)CC3)cc1F [Compound 93, (E)-8-chloro-5-(2-(3-fluoro-4-methoxyphenyl)prop-1-enyl)-2,3,4,5-tetrahydro-2-methyl-1H-pyrido[4,3-b]indole]
- inhibition at 1 µM (histamine receptor H1): 39%
- inhibition at 1 µM [1]: 108%
- Inhibition of ligand binding, Dopamine D2L [2]: 97%
- inhibition at 1 µM [2]: 85%
- inhibition at 1 µM [3]: 99%

SMILES: C/C(=C\n1c2c(c3cc(Cl)ccc31)CN(C)CC2)c1ccc(Cl)cc1 [Compound 100, (E)-8-chloro-5-(2-(4-chlorophenyl)prop-1-enyl)-2,3,4,5-tetrahydro-2-methyl-1H-pyrido[4,3-b]indole]
- Histamine Binding (1 μM) H1, percent inhibition of specific binding (histamine receptor H1): 67%
- inhibition at 1 µM (histamine receptor H1): 65%
- inhibition at 1 µM [1]: 97%
- Inhibition of ligand binding, Dopamine D2L [2]: 68%
- inhibition at 1 µM [2]: 67%
- inhibition at 0.1 µM [3]: 104%
- inhibition at 1 µM [3]: 97%

SMILES: CN1CCc2c(c3cc(Cl)ccc3n2/C=C(/c2ccc(F)cc2)C2CC2)C1 [Compound 110, (E)-8-chloro-5-(2-cyclopropyl-2-(4-fluorophenyl)vinyl)-2,3,4,5-tetrahydro-2-methyl-1H-pyrido[4,3-b]indole]
- Histamine Binding (1 μM) H1, percent inhibition of specific binding (histamine receptor H1): 83%
- inhibition at 1 µM (histamine receptor H1): 77%
- inhibition at 1 µM [1]: 92%
- Inhibition of ligand binding, Dopamine D2L [2]: 98%
- inhibition at 1 µM [2]: 96%
- inhibition at 0.1 µM [3]: 99%
- inhibition at 1 µM [3]: 101%

SMILES: Cc1ccc(/C=C/Cn2c3c(c4cc(Cl)ccc42)CN(C)CC3)cn1 [Compound 125, 8-chloro-2,3,4,5-tetrahydro-2-methyl-5-((E)-3-(6-methylpyridin-3-yl)allyl)-1H-pyrido[4,3-b]indole]
- inhibition at 1 µM (histamine receptor H1): 96%
- inhibition at 1 µM [1]: 110%
- inhibition at 1 µM [2]: 20%
- inhibition at 1 µM [3]: 77%

SMILES: CN1CCc2c(c3cc(Cl)ccc3n2C/C=C/c2ccc(F)cc2)C1 [Compound 126, 5-(4-fluorocinnamyl)-8-chloro-2,3,4,5-tetrahydro-2-methyl-1H-pyrido[4,3-b]indole]
- inhibition at 1 µM (histamine receptor H1): 103%
- inhibition at 1 µM [1]: 116%
- inhibition at 1 µM [2]: 84%
- inhibition at 1 µM [3]: 84%

SMILES: CN1CCc2c(c3cc(Cl)ccc3n2C/C=C/c2ccncc2)C1 [Compound 127, 8-chloro-2,3,4,5-tetrahydro-2-methyl-5-((E)-3-(pyridin-4-yl)allyl)-1H-pyrido[4,3-b]indole]
- inhibition at 1 µM (histamine receptor H1): 100%
- inhibition at 1 µM [1]: 68%
- inhibition at 1 µM [2]: 10%
- inhibition at 1 µM [3]: 72%

SMILES: C=C(Cn1c2c(c3cc(Cl)ccc31)CN(C)CC2)c1ccc(F)cc1 [Compound 128, 8-chloro-5-(2-(4-fluorophenyl)allyl)-2,3,4,5-tetrahydro-2-methyl-1H-pyrido[4,3-b]indole]
- inhibition at 1 µM (histamine receptor H1): 98%
- inhibition at 1 µM [1]: 120%
- inhibition at 1 µM [2]: 97%
- inhibition at 1 µM [3]: 100%

SMILES: C=C(Cn1c2c(c3cc(C)ccc31)CN(C)CC2)c1ccc(F)cc1 [Compound 132, 5-(2-(4-fluorophenyl)allyl)-2,3,4,5-tetrahydro-2,8-dimethyl-1H-pyrido[4,3-b]indole]
- inhibition at 1 µM (histamine receptor H1): 96%
- inhibition at 1 µM [1]: 118%
- inhibition at 1 µM [2]: 91%
- inhibition at 1 µM [3]: 96%
